This note sets out measurements from patent US7989446B2, “4-amino 5-cyanopyrimidine derivatives” (Otsuka Pharmaceutical Co., Ltd., priority 2004, dated 2011).

Where a name gives a salt, the structure may show the parent alone.

A word on the EC50: it is the concentration that produces a half-maximal response.

For test [1], the target named is T1, adenosine A2a receptor (Human) (Homo sapiens, UniProt P29274).
T1 construct: host or cells: HEK293
The test can be described thus: c-AMP generating action in cell expressing adenosine A2a receptor. In kind it is cell-based. As to conditions: HEK293 cell expressing human A2a; 100% = c-AMP caused by 1 μM CGS-21680; read-out: A2a Agonistic Action (EC50). How it is done: (1) c-AMP Generating Action in Cell Expressing Adenosine A2a Receptor
The test was carried out as mentioned below with reference to the method disclosed in the reference (Klotz k. N. et al., Naunyn-Schmiedeberg's Arch. Pharmacol., (1998) 357, 1-9; Shryock J. C. et al., Molecular Pharmacology, (1998) 53, 886-893).
As to the cell, HEK293 cell expressing adenosine A2a receptor (Human) (PerkinElmer Life Sciences, Code No. RBHA2AC) was used.
As to the culture medium, Dulbecco's modified Eagles medium (DMEM) including 10% FBS (Fetal bovine serum) and 1 mM of sodium pyruvate was used.
The cell was placed on 96 well plate (1×10^5/well), and cultured overnight. After removing off the supernatant, to each well, 0.1 ml of DMEM (without FBS) containing 20 mM HEPES, 0.1 mM of IBMX (3-isobutyl-1-methylxanthine) and 2 unit/mL adenosine deaminase was added, and they were incubated at 37° C. for 30 minutes. To each well, 0.1 ml of the culture medium including the DMSO solution of the test compound in an appropriate concentration was added and they were incubated for additional 30 minutes. After removing off the supernatant, the cytolytic solution was added to quench the reaction. The amount of c-AMP in each well was measured by using the c-AMP enzyme immunoassay (EIA) system (Amersham Biosciences, Code No. RPN225).
The same assay was repeated using CGS-21680 (2-p-carboxyethyl)phenethylamino-5′-N-ethylcarboxamidoadenosine hydrochloride, (Sigma, code C141) as reference compound. The amount of resultant c-AMP in the medium, caused by 1 μM of reference compound, was defined to be 100%. A concentration of assayed compound in the medium, producing 50% c-AMP amounts, was calculated to be EC50 value.

Test [2] concerns Intraocular Pressure in Rabbit. Description: Measuring test for intraocular pressure in rabbit. It is filed as in vivo, Female New Zealand white rabbits. As to conditions: 0.3% suspended ophthalmic preparation, test group, mean±standard error. Here is the method:
(3) Measuring Test for Intraocular Pressure in Rabbit
The test compounds were dissolved in 10 mM of phosphate buffer (pH 7.5) (hereinafter, referred to as “vehicle of ophthalmic preparation”), and they were instilled in a given concentration. In addition, the compounds insoluble in that concentration was used as a suspension. Female New Zealand white rabbits (KITAYAMA LABES Co., Ltd.) whose weights were 2.0-4.0 kg were used.
The measurement of the intraocular pressure was carried out using Pneumatonometer (Model 30 Classic, Mentor company) without anesthesia. In addition, before the measurement of the intraocular pressure, the surface anesthesia with 0.4% oxybuprocaine hydrochloride (“Benoxil” 0.4% ophthalmic solution, Santen Pharmaceutical Co., Ltd.) was carried out.
The animals whose intraocular pressure was stable before instillation were selected, and these animals were divided to every 4 animal in each one group, 50 μL of eye drops including each the test compound was administered to one-sided eye and vehicle was administered to contralateral eye as the control eye. The measurement of intraocular pressure was carried out before instillation and after 0.5, 1, 2, 3, 4 and 6 hours from instillation. The effect on the intraocular pressure was shown as the difference from pre-instillation (ΔIOP, mmHg, mean±standard error). The following Tables 14 and 15 show the results of Control Compounds A and B used as 1% suspensions which are the same as in the pharmacological test (1).
The animals were pretreated as mentioned above, and among them animals whose intraocular pressure was stable before instillation were selected, and these animals were divided to every 5 to 8 animal in each one group. Every two group was used for each of the test compounds. The test compound was administered unilaterally to the eye of the test group rabbit and the intraocular pressure was measured. The vehicle was administered unilaterally to the eye of the control group rabbit and the intraocular pressure was measured. As mentioned above, the measurement of intraocular pressure was carried out before instillation and after 0.5, 1, 2, 3, 4 and 6 hours from instillation, and the effect on the intraocular pressure was shown as the difference from pre-instillation (ΔIOP, mmHg, mean±standard error).

T1 sequence (P29274 whole entry): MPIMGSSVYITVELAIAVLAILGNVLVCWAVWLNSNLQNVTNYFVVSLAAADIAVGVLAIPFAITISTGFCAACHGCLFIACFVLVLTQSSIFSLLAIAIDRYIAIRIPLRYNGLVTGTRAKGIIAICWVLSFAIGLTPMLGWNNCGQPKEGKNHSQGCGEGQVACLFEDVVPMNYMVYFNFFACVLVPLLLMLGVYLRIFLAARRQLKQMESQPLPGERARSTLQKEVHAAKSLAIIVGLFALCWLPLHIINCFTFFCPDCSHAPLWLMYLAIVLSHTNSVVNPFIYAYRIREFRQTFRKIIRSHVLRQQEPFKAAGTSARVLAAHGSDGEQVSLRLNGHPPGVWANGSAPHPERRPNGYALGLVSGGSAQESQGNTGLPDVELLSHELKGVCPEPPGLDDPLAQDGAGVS

Regarding `CCC(=O)CCc1cccc(CSc2nc(N)c(C#N)c(-c3ccc(NC(C)=O)cc3)n2)n1` [Example 82, N-(4-{6-amino-5-cyano-2-[6-(3-oxopentyl)pyridin-2-ylmethylsulfanyl]pyrimidin-4-yl}phenyl)acetamide], the EC50 in test [1] amounted to 8.2 nM. In the case of `CCCC(=O)Nc1ccc(-c2nc(SCc3cccc(CCC(=O)N4CCN(C)CC4)n3)nc(N)c2C#N)cc1` [Example 58, N-[4-(6-amino-5-cyano-2-{6-[3-(4-methylpiperazin-1-yl)-3-oxopropyl]pyridin-2-ylmethylsulfanyl}pyrimidin-4-yl)phenyl]-butylamide], the EC50 in test [1] was found to be 38 nM. On to `CC(=O)Nc1ccc(-c2nc(SCc3cccc(C(=O)N4CCOCC4)n3)nc(N)c2C#N)cc1` [Example 26, N-(4-{6-amino-5-cyano-2-[6-(morpholin-4-carbonyl)pyridin-2-ylmethyl-sulfanyl]pyrimidin-4-yl}phenyl)acetamide hydrochloride salt], for which, in test [1], the EC50 was determined as 30.7 nM. Turning to `CC(=O)Nc1ccc(-c2nc(SCc3cc(C)ccn3)nc(N)c2C#N)cc1` [Example 4, N-{4-[6-amino-5-cyano-2-(4-methylpyridin-2-ylmethylsulfanyl)pyrimidin-4-yl]phenyl}acetamide], the EC50 in test [1] came to 879 nM. On the same count and under the same terms, the figure for `CC(=O)Nc1ccc(-c2nc(SCc3cccc(CN4CCN(C(=O)c5ccccc5)CC4)n3)nc(N)c2C#N)cc1` [Example 19, N-(4-{6-amino-2-[6-(4-benzoylpiperazin-1-ylmethyl)pyridin-2-ylmethylsulfanyl]-5-cyanopyrimidin-4-yl}phenyl)acetamide] is 7.4 nM. As to `Cc1cccc(CSc2nc(N)c(C#N)c(-c3ccc(N)cc3)n2)n1` [Example 8, 4-amino-6-(4-aminophenyl)-2-(6-methylpyridin-2-ylmethylsulfanyl)-pyrimidine-5-carbonitrile], in test [1], the EC50 was 34.8 nM. On the same count and under the same terms, the value for `CCC(=O)Nc1ccc(-c2nc(SCc3cccc(C)n3)nc(N)c2C#N)cc1` [Example 9, N-{4-[6-amino-5-cyano-2-(6-methylpyridin-2-ylmethylsulfanyl)-pyrimidin-4-yl]phenyl}propionamide] was 9 nM. The same measure, in the same setting: the figure for `CCN(CC)CCN1CCN(C(=O)CCCCc2cccc(CSc3nc(N)c(C#N)c(-c4ccc(NC(C)=O)cc4)n3)n2)CC1` [Example 55, N-{4-[6-amino-5-cyano-2-(6-{5-[4-(2-diethylaminoethyl)piperazin-1-yl]-5-oxopentyl}pyridin-2-ylmethylsulfanyl)pyrimidin-4-yl]phenyl}acetamide hydrochloride] is 5.5 nM; for `CC(=O)Nc1ccc(-c2nc(SCc3cccc(CN4CCN(C(=O)CN5CCN(C)CC5)CC4)n3)nc(N)c2C#N)cc1` [Example 21, N-{4-[6-amino-5-cyano-2-(6-{4-[2-(4-methylpiperazin-1-yl)acetyl]piperazin-1-ylmethyl}pyridin-2-ylmethylsulfanyl)pyrimidin-4-yl]phenyl}acetamide hydrochloride] it is 10.6 nM.

As for `CCC(=O)Nc1ccc(-c2nc(SCc3cccc(CCC(=O)N4CCN(C)CC4)n3)nc(N)c2C#N)cc1` [Example 57, N-[4-(6-amino-5-cyano-2-{6-[3-(4-methylpiperazin-1-yl)-3-oxopropyl]pyridin-2-ylmethylsulfanyl}pyrimidin-4-yl)phenyl]propionamide], the EC50 in test [1] came to 3.4 nM. As for `CC(=O)Nc1ccc(-c2nc(SCc3cccc(CCCCC(=O)N4CCN(C)CC4)n3)nc(N)c2C#N)cc1` [Example 54, N-[4-(6-amino-5-cyano-2-{6-[5-(4-methylpiperazin-1-yl)-5-oxopentyl]pyridin-2-ylmethyl-sulfanyl}pyrimidin-4-yl)phenyl]acetamide], the EC50 in test [1] is 5.3 nM. In the case of `CC(=O)Nc1ccc(-c2nc(SCc3cccc(C=CC(=O)N4CCN(C)CC4)n3)nc(N)c2C#N)cc1` [Example 48, N-[4-(6-amino-5-cyano-2-{6-[3-(4-methylpiperazin-1-yl)-3-oxopropenyl]pyridin-2-ylmethylsulfanyl}pyrimidin-4-yl)-phenyl]acetamide], the EC50 in test [1] came to 29.1 nM. For the compound `CC(=O)Nc1ccc(-c2nc(SCc3ccccn3)nc(N)c2C#N)cc1` [Example 1, N-{4-[6-amino-5-cyano-2-(pyridin-2-ylmethylsulfanyl)-pyrimidin-4-yl]phenyl}acetamide], in test [1], the EC50 is 39.6 nM.

Consider `CCNC(=O)[C@H]1O[C@@H](n2cnc3c(N)nc(NCCc4ccc(CCC(=O)O)cc4)nc32)[C@H](O)[C@@H]1O` [CGS-21680, (2-p-carboxyethyl)phenethylamino-5′-N-ethylcarboxamidoadenosine hydrochloride, reference compound], for which the “ΔIOP (mmHg)” value in test [2] (0.5 hr) is −2.5 ± 0.4 mmHg; in test [2] (1 hr), −6.3 ± 0.6 mmHg; in test [2] (2 hr), −4.2 ± 0.4 mmHg; in test [2] (3 hr), −3.5 ± 0.4 mmHg; in test [2] (4 hr), −1.5 ± 0.7 mmHg; in test [2] (6 hr) it was 0.3 ± 0.4 mmHg.

For the compound `CCCS(=O)(=O)N(C)Cc1cccc(CSc2nc(N)c(C#N)c(-c3ccc(NC(C)=O)cc3)n2)n1` [Example 41, N-{4-[6-amino-5-cyano-2-(6-{[methyl(propan-1-sulfonyl)amino]methyl}-pyridin-2-ylmethylsulfanyl)pyrimidin-4-yl]phenyl}acetamide], the EC50 in test [1] is 23 nM.

Regarding `CC(=O)Nc1ccc(-c2nc(SCc3cccc(C(=O)N4CCN(C(=O)OC(C)(C)C)CC4)n3)nc(N)c2C#N)cc1` [Example 28, t-butyl 4-{6-[4-(4-acetylaminophenyl)-6-amino-5-cyanopyrimidin-2-ylsulfanyl-methyl]pyridine-2-carbonyl}piperazine-1-carboxylate], the EC50 in test [1] came to 8.2 nM. For the compound `CCN(CC)C1CCN(C(=O)CCc2cccc(CSc3nc(N)c(C#N)c(-c4ccc(NC(C)=O)cc4)n3)n2)CC1` [Example 68, N-[4-(6-amino-5-cyano-2-{6-[3-(4-diethylaminopiperidin-1-yl)-3-oxopropyl]pyridin-2-yl-methylsulfanyl}pyrimidin-4-yl)phenyl]acetamide hydrochloride salt], the half-maximal effective concentration (EC50) in test [1] worked out at 7.5 nM. `CC(=O)Nc1ccc(-c2nc(SCc3cccc(C#CCCC(=O)N4CCN(C)CC4)n3)nc(N)c2C#N)cc1` [Example 52, N-[4-(6-amino-5-cyano-2-{6-[5-(4-methylpiperazin-1-yl)-5-oxopent-1-ynyl]pyridin-2-ylmethylsulfanyl}pyrimidin-4-yl)phenyl]acetamide]: in test [1], the EC50 was found to be 7 nM. Still for that read-out and setting: the value for `CC(=O)Nc1ccc(-c2nc(SCc3ccc(C)cn3)nc(N)c2C#N)cc1` [Example 3, N-{4-[6-amino-5-cyano-2-(5-methylpyridin-2-ylmethylsulfanyl)pyrimidin-4-yl]phenyl}acetamide] was 65.7 nM; that for `CN1CCN(C(=O)CCc2cccc(CSc3nc(N)c(C#N)c(-c4ccc(N)cc4)n3)n2)CC1` [Example 56, 4-amino-6-(4-aminophenyl)-2-{6-[3-(4-methylpiperazin-1-yl)-3-oxopropyl]-pyridin-2-ylmethylsulfanyl}pyrimidin-5-carbonitrile] was 5.1 nM.

Regarding `CC(=O)Nc1ccc(-c2nc(SCc3cccc(CNC(=O)CCCN4CCCC4)n3)nc(N)c2C#N)cc1` [Example 33, N-{6-[4-(4-acetylaminophenyl)-6-amino-5-cyanopyrimidin-2-ylsulfanylmethyl]pyridin-2-ylmethyl}-4-pyrrolidin-1-ylbutyl-amide], the EC50 in test [1] came out at 48 nM.
